# Source: patent publication US20210361628A1, “2-OXOTHIAZOLE COMPOSITIONS FOR TREATMENT OF FIBROTIC DISEASE” (Avexxin AS, priority 2018, published 2021)
# Experiments:
# [1] = test system: PGE2 in rat renal mesangial cells; assay: IL-1 induced PGE2 in rat renal mesangial cells (EIA); type: cell-based; conditions: Mesangial cell, IL-1 stimulation
# Experimental: Cell culture of rat renal mesangial cells were isolated, characterized and cultured as previously described (Pfeilschifter eteil., e1984).84ERLINK “htmesangial cells in 24-well plates were pretreated for 90library.wiley.com/doi/full/10.1111/Compound A before stimulation in a volume of 0.5 mL with IL-1eforenM, Cell Concept GmbH) to induce PGE2Hn in a volume of 0.5 mL with ILcom/doi/full^0C, 5% CO2), the cell suspensions were centrifuged to isolate the supernatant from the cell fraction. Samples were stored at −80° C. until analysis.
# Rat mesangial cell supernatants were analyzed by EIA for PGE2 (Assay Designs, BIOTREND Chemikalien GmbH), according to the manufacturers protocols. Data were calculated as pg of PGE2 per 1.3×10^5 cells which was the cell number per well.
# [2] = test system: α-SMA mRNA in NRK-49F cells; assay: TGF-β1 induced α-SMA mRNA expression in NRK-49F cells (qRT-PCR); type: cell-based, rat; conditions: 5 μM, 10 ng/ml TGF-β1 for 24 h
# Experimental: NRK-49F (normal rat kidney fibroblasts, ATCC® CRL-1570™) were maintained in DMEM with 4500 mg/L glucose, 5% FBS, L-glutamine, and gentamicin. For experiments, 3×10^5 cells/well were seeded in 6-well plates. After three days, post-confluent cells were serum starved for 24 h. They were then pre-incubated with inhibitors for 90 min, before they were treated with 10 ng/ml TGF-β1 for 24 h (mRNA-expression).
# (§1) Total RNA was isolated using the RNeasy Mini Kit (Qiagen). cDNA synthesis was performed with 1 μg total RNA in 20 μl reaction of QuantiTect Reverse Transcription Kit (Qiagen). After synthesis, cDNA was diluted 1:6 with RNase-free water. qRT-PCR was performed with LightCycler 480 SYBR Green I Master (Roche), and the qRT-PCR analyses were carried out using the Lightcycler 96 system (Roche).
# [3] = test system: Ptgs2 mRNA in MRC-5 cells; assay: TGF-β1 induced Ptgs2 mRNA expression in MRC-5 cells (qRT-PCR); type: cell-based, human; conditions: 5 μM, 2 ng/ml TGF-β1 for 24 h
# Experimental: MRC-5 (human lung fibroblast, ATCC® CCL-171™) were maintained in MEM with 10% FBS, L-glutamine, and gentamicin. For experiments, 1×10^5 cells/well were seeded in 6-well plates. After two days, pre-confluent cells were serum starved for 24 h. They were then pre-incubated with inhibitors for 90 min, before they were treated with 2 ng/ml TGF-β1 for 24 h.
# as §1
# [4] = test system: Ptgs2 mRNA in RMC (rat mesangial cells); assay: TGF-β1 induced Ptgs2 mRNA expression in RMC (qRT-PCR); type: cell-based; conditions: 5 μM, 5 ng/ml TGF-β1 for 24 h
# Experimental: (§2) RMC (rat mesangial cells, ATCC® CRL-2573™) were maintained in DMEM with 4500 mg/L glucose (Sigma), 15% FBS, L-glutamine, and 0.4 mg/ml G418. For experiments, 3×10^5 cells/well were seeded in 6-well plates. After five days, post-confluent cells were serum starved for 24 h. They were then pre-incubated with inhibitors for 90 min, before they were treated with 5 ng/ml TGF-β1 for 24 h.
# as §1
# [5] = test system: α-SMA mRNA in RMC (rat mesangial cells); assay: TGF-β1 induced α-SMA mRNA expression in RMC mesangial cell line (qRT-PCR); type: cell-based; conditions: 5 ng/ml TGF-β1 for 24 h, not significant
# Experimental: as §2, §1
# [6] = test system: PGE2 production in human PBMC; assay: LPS-induced PGE2 production in human PBMC (EIA); type: cell-based; conditions: LPS 10 ng/mL, 72 hrs
# Experimental: Blood was recruited from healthy donors at St. Olavs Hospital HF, the Bloodbank (project approved by Regional Ethical Committee of Mid-Norway; #2016/553). Peripheral blood mononuclear cells (PBMC) were isolated using SepMate™ separation tubes with LymphoPrep density gradient medium according to the STEMCELL Technology recommendations. For experiments, 1×10^6 cells/well/1 mL RPMI medium supplemented with 5% FBS, 0.3 mg/ml glutamine and 0.1 mg/ml gentamicin with- or without inhibitor. Treatments were added 2 hours prior to the addition of lipopolysaccharides as a potent inducer of inflammation (LPS from E. coli 026:B6 γ-irradiated, Sigma-Aldrich, #L2654). Following treatment (72 hrs., 37° C., 5% CO2), the cell suspensions were centrifuged to isolate the supernatant from the cell fraction. Samples were stored at −80° C. until analysis.
# PBMC supernatants were analyzed by enzyme-linked immunosorbent assay (EIA) for PGE2 (Cayman #514010), according to the manufacturers protocols. PBMC supernatants were assayed at dilutions of 1:100, except supernatants from non-LPS treated PBMC that were assayed undiluted in all assays. Supernatants were hybridized over-night incubation, enzymatic conversion of substrate were read at OD420 nm. Data were processed using a 4-parameter logistic fit model.
# [7] = read-out: estimated IC50 of PGE2 inhibition
compound,measurement,setting,value
CCCCCCCOc1ccc(OCC(=O)c2nc(C(=O)OC)cs2)cc1 [Compound A],inhibition at 10 µM,[1]; 10 μM,65%
same,IC50,[1]; [7],0.9 µM
same,inhibition of TGF-β1 induced expression of α-SMA mRNA,[2],50%
same,Ptgs2 expression,[3],reduced Ptgs2 expression
same,Ptgs2 mRNA levels,[4],seem to reduce Ptgs2 mRNA levels
same,reduction of α-SMA mRNA expression,[5],around 35%
same,PGE2 production,"[6]; 10 μM (highest dose), LPS alone 18185+/−11200 pg/mL",510 ± 406 pg/mL
same,IC50,[6]; [7],0.44 µM
